{"source": "patent US20130237556A1", "about": "“BERBERINE ALKALOID AS A MEDICAMENT FOR PREVENTION AND TREATMENT OF NEURAL DISEASE” (HONG KONG BAPTIST UNIVERSITY, priority 2012, published 2013)", "origin": "cited, not measured here", "system": "activated microglia", "details": "ibuprofen-treated animals; cited from earlier work"}
{"smiles": "CC(C)Cc1ccc(C(C)C(=O)O)cc1", "note": "(stereo not shown) [ibuprofen]", "values": [{"measurement": "decrease in activated microglia", "value": 57, "unit": "%"}]}
